Experimental data as given in patent US12594282B2, “Use of small molecule compounds in the treatment of diseases mediated by lung epithelial cell injury and/or vascular endothelial cell injury” (Guangzhou Cellprotek Pharmaceutical Co., Ltd., priority 2020, dated 2026).

Experiments:
[1] = system: NR4A3 mRNA; test: NR4A3 mRNA under OGD-R, RAOEC (real-time fluorescent quantitative PCR); type: cell-based, rat; settings: 10 μM given at restoration
Protocol: HUVEC cells were cultured in modified DMEM medium containing 10% fetal bovine serum. When the cells reached about 80% confluence, the cells were digested with 0.25% trypsin, and then pipetted evenly with modified DMEM containing 10% […]. The cell concentration was adjusted to 1×10^5 cells/mL, and the cells were seeded at 400 uL/well in a 24-well plate, and the experiment was carried out when the cells grew to about 70% confluence. RAOEC cells were cultured in high-glucose DMEM medium containing 10% fetal bovine serum, and the seeding conditions were the same as those of HUVEC. During the OGD-R injury treatment, the hypoxia workstation was set to have an oxygen concentration of 1% (1% O2, 5% CO2, 94% N2), a temperature of 37° C., and a humidity of 85%. A sugar-free DMEM medium was placed in the hypoxia workstation for pre-hypoxia for 3 hours. The medium in the culture plate was aspirated, and the plate was washed twice with preheated sugar-free DMEM medium, and 100 uL of sugar-free DMEM medium was added to each well. The culture plate was placed in the hypoxia workstation, and 300 uL of pre-hypoxic sugar-free DMEM medium was added to each well, and then the culture plate was placed in the hypoxia workstation for additional hypoxia for 4 hours. Restoration was then performed. […]

[2] = system: PFKFB3; test: Glutamate-induced PFKFB3 expression in primary cerebellar granule neurons (Western blot); type: cell-based, mice; settings: 10 μM, pre-incubation 20 mins; 200 μM glutamate for 5 mins and 15 mins
Protocol: The cells were obtained from SD P7-8 neonatal mice. The cerebellum was taken, and the meninges and blood vessels were removed using microtweezers; the isolated cerebellar tissue was transferred to another dish containing dissection solution. The tissue was cut into pieces as small as possible using a tissue scissor. Digestion: The tissue in pieces was added into 7 mL of 0.25% trypsin digestive solution with a pipet, and was digested at 37° C. for 15 mins; the bench surface was cleaned and the instruments were washed. The container was turned upside down several times every five minutes to bring the tissue into better contact with the digestive solution. End of digestion: After the digestion, it can be seen that the tissue was sticked together and suspended in the liquid due to cell disruption and release of DNA. The digestion was terminated by adding 3 mL of […] 10% FBS DMEM medium. The container was turned upside down several times, and it can be observed that the remaining tissue dispersed due to DNA hydrolysis. Centrifugation was performed at 1000 rpm for 5 mins. As much supernatant as possible was carefully removed. Collection of single cell suspension: 7 mL of DNase-containing 10% FBS DMEM medium was taken with a pipet, by which the tissue pellet was gently pipeted. […] The cells were counted with a hand-held cell counter, and the seeding density was 4.0-5.0×10^5 cells/mL. […]

For C[C@@]12CCCC1C1C[C@@H](O)[C@]3(O)C[C@@H](O)CC[C@]3(C)C1CC2 (stereo partly drawn) [YC-6, 5α-androst-3β,5,6β-triol], the “transcription level of NR4A3 (relative mRNA expression)” value [1] was “did not significantly up-regulate the transcription level of NR4A3” and the “glutamate-induced up-regulation of intracellular PFKFB3 expression” value [2] was “significantly inhibited this rapid increase”.
